Experimental data taken from patent publication US5447717A, “Cholesterol-lowering agents” (Merck & Co., Inc., priority 1993, dated 1995).

Columns and labels:
Ras = conditions: Hancock et al.; Casey et al.; Schafer et al.; cited from earlier work
Squalene Synthase = molecular target: T1, Squalene Synthase (Rattus norvegicus, UniProt Q02769); experiment: Squalene Synthase Assay (in vitro, rat liver microsomes); type: biochemical; conditions: [4-14C]farnesyl pyrophosphate, 30° C., 20 minutes
T1 construct: from tissue; host or cells: rat liver microsomes (male Charles River CD rats, fed 0.1% lovastatin for 4 days)
T1 sequence (Q02769 1-416): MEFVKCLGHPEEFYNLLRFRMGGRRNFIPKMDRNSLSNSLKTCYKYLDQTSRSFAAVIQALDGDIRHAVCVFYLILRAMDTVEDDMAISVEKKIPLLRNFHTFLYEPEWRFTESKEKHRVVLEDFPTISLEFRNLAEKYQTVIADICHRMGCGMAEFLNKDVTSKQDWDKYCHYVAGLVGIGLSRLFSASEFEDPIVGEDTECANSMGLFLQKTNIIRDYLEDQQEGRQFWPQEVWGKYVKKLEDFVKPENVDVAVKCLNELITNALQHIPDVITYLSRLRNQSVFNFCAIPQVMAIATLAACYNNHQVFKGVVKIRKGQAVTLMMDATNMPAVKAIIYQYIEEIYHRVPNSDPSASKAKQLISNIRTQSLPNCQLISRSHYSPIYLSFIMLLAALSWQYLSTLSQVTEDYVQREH
Experimental: The intrinsic squalene synthase inhibitory activity of representative compounds of this invention was measured by the standard ill vitro protocol described below:
Preparation of Rat Liver Microsomes
Male, CHARLES RIVER CD® rats (120 to 150 g) were fed a diet containing 0.1% lovastatin for 4 days. The livers from these rats were homogenized in 5 volumes (mL/g) of ice cold 50 mM HEPES (4-(2-hydroxyethyl)-1-piperazine-ethanesulfonic acid), 5 mM EDTA(ethylenediaminetetraacetic acid) pH 7.5 with a Potter-Elvehjem type tissue grinder. The homogenate was centrifuged twice at 20,000 × g for 15 min. at 4° C., discarding the pellet each time. The supernatant was then centrifuged at 100,000 × g for 1 hr at 4° C. The resulting microsomal pellet was resuspended in a volume of the above homogenizing buffer equal to one-fifth the volume of the original homoSenate. This microsomal preparation has a protein concentration of about 7 mg/mL. The microsomal suspensions were stored in aliquots at -70° C. Squalene synthase activity in these aliquots is stable for a least several months.
Partial Purification of Prenyl Transferase
Prenyl transferase was purified to use in the enzymatic synthesis of radiolabelled farnesyl pyrophosphate. […]

## CC[C@H](C)C(=O)O[C@H]1C[C@@H](C)C=C2C=C[C@H](C)[C@H](CC[C@@H]3C[C@@H](O)CC(=O)O3)[C@H]21 [lovastatin]
Ras
  Inhibition of Ras farnesylation in vivo: Inhibition of Ras farnesylation in vivohas been demonstrated

## C=C(CCC12OC3C(=O)OC3(C(=O)O)C(C(=O)O)(O1)C(OC(=O)/C=C/C(C)CC(C)CC)C2O)C(OC(C)=O)C(C)Cc1ccccc1 (stereo not drawn) [Compound 1, IIA-β-Lactone]
Squalene Synthase
  IC50: 0.4 nM

## CC[C@H](C)C(=O)O[C@H]1CCC=C2C=C[C@H](C)[C@H](CC[C@@H]3C[C@@H](O)CC(=O)O3)[C@H]21 [compactin]
Ras
  Inhibition of Ras farnesylation in vivo: Inhibition of Ras farnesylation in vivohas been demonstrated
